# Results published in patent US20230085307A1, “PYRIDAZINONE COMPOUND AND HERBICIDE” (NISSAN CHEMICAL CORPORATION, priority 2019, published 2023).
# System: barnyard grass
# Test: Test Example 4: herbicidal effect by soil treatment (Table 19, symbol H)
# Type: in vivo, barnyard grass (Echinochloa crus-galli)
# Conditions: amount of applied herbicide 320 g/ha
# In short: (§1)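 Three weeks of greenhouse growth at 25° C. to 30° C. followed a uniform surface spray of water-diluted emulsion at a predetermined herbicide amount. Seeds had been sown beforehand under about 1.5 cm of sterilized diluvial soil. Grading followed criteria set out in an earlier test.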
Structure (SMILES),"herbicidal effect, H: barnyard grass","H: barnyard grass, herbicidal effect grade"
CCOc1ccccc1-c1sc2cc(F)ccc2c1-c1c(O)c(C)nn(C)c1=O [3-006],5 (Herbicidal rate of 90% or more (almost completely withered)),
CCCC(=O)Oc1c(C)nn(C)c(=O)c1-c1c(-c2ccc(F)cc2OC)sc2cc(F)ccc12 [3-010],3 (Herbicidal rate of 40% or more and less than 70%),
CCOc1ccc2c(-c3c(O)c(C)nn(C)c3=O)c(-c3ccc(F)cc3OCC)sc2c1 [3-095],,5 (Herbicidal rate of 90% or more (almost completely withered))

# System: persian speedwell
# Test: Test Example 5: herbicidal effect by foliage application, plastic box (Table 20, symbol R)
# Type: in vivo, Persian speedwell (Veronica persica)
# Conditions: foliage application, 320 g/ha, three weeks after application
# In short: (§2)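 Plants sown in sterilized diluvial soil and grown 14 days in a greenhouse at 25° C to 30° C, then sprayed on the foliage with the compound's emulsion diluted in water to a predetermined herbicide amount. Injury to weeds and crops scored three weeks after application on a visual rating scale.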
row,Structure (SMILES),"R: persian speedwell, herbicidal effect grade"
1,CCOc1ccccc1-c1sc2cc(F)ccc2c1-c1c(O)c(C)nn(C)c1=O [3-006],5 (Herbicidal rate of 90% or more (almost completely withered))
2,CCCC(=O)Oc1c(C)nn(C)c(=O)c1-c1c(-c2ccc(F)cc2OC)sc2cc(F)ccc12 [3-010],5 (Herbicidal rate of 90% or more (almost completely withered))
3,CCOc1ccc2c(-c3c(O)c(C)nn(C)c3=O)c(-c3ccc(F)cc3OCC)sc2c1 [3-095],5 (Herbicidal rate of 90% or more (almost completely withered))

# System: false cleavers
# Test: Test Example 5: herbicidal effect by foliage application, plastic box (Table 20, symbol Q)
# Type: in vivo, false cleavers (Galium spurium)
# Conditions: foliage application, 320 g/ha, three weeks after application
# In short: as §2
row,Structure (SMILES),"Q: false cleavers, herbicidal effect grade"
1,CCOc1ccccc1-c1sc2cc(F)ccc2c1-c1c(O)c(C)nn(C)c1=O [3-006],5 (Herbicidal rate of 90% or more (almost completely withered))
2,CCCC(=O)Oc1c(C)nn(C)c(=O)c1-c1c(-c2ccc(F)cc2OC)sc2cc(F)ccc12 [3-010],5 (Herbicidal rate of 90% or more (almost completely withered))
3,CCOc1ccc2c(-c3c(O)c(C)nn(C)c3=O)c(-c3ccc(F)cc3OCC)sc2c1 [3-095],5 (Herbicidal rate of 90% or more (almost completely withered))

# System: chickweed
# Test: Test Example 4: herbicidal effect by soil treatment (Table 19, symbol P)
# Type: in vivo, common chickweed (Stellaria media)
# Conditions: amount of applied herbicide 320 g/ha
# In short: as §1
Structure (SMILES),"herbicidal effect, P: chickweed","P: chickweed, herbicidal effect grade"
CCOc1ccccc1-c1sc2cc(F)ccc2c1-c1c(O)c(C)nn(C)c1=O [3-006],5 (Herbicidal rate of 90% or more (almost completely withered)),
CCCC(=O)Oc1c(C)nn(C)c(=O)c1-c1c(-c2ccc(F)cc2OC)sc2cc(F)ccc12 [3-010],4 (Herbicidal rate of 70% or more and less than 90%),
CCOc1ccc2c(-c3c(O)c(C)nn(C)c3=O)c(-c3ccc(F)cc3OCC)sc2c1 [3-095],,4 (Herbicidal rate of 70% or more and less than 90%)

# System: rice flat sedge
# Test: Test Example 3: herbicidal effect by foliage application, Wagner pot (Table 18, symbol E)
# Type: in vivo, rice flat sedge (Cyperus iria)
# Conditions: 320 g/ha
# In short: (§3)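 Plants were sown in alluvial soil held under 0.1–0.5 cm standing water and grown 14 days in a greenhouse at 25–30 °C. An emulsifiable formulation, water-diluted to the set dose, was then sprayed onto the foliage, and effects were scored three weeks later using previously defined criteria.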
row,Structure (SMILES),herbicidal effect on rice flat sedge (E)
1,CCOc1ccc2c(-c3c(O)c(C)nn(C)c3=O)c(-c3ccc(F)cc3OCC)sc2c1 [3-095],5 (Herbicidal rate of 90% or more (almost completely withered))

# Same assay, conditions: amount of applied herbicide 320 g/ha
row,Structure (SMILES),herbicidal effect on E: rice flat sedge
1,CCOc1ccccc1-c1sc2cc(F)ccc2c1-c1c(O)c(C)nn(C)c1=O [3-006],5 (Herbicidal rate of 90% or more (almost completely withered))
2,CCCC(=O)Oc1c(C)nn(C)c(=O)c1-c1c(-c2ccc(F)cc2OC)sc2cc(F)ccc12 [3-010],4 (Herbicidal rate of 70% or more and less than 90%)

# System: southern crabgrass
# Test: Test Example 4: herbicidal effect by soil treatment (Table 19, symbol F)
# Type: in vivo, southern crabgrass (Digitaria ciliaris)
# Conditions: amount of applied herbicide 320 g/ha
# In short: as §1
Structure (SMILES),"herbicidal effect, F: southern crabgrass","F: southern crabgrass, herbicidal effect grade"
CCOc1ccccc1-c1sc2cc(F)ccc2c1-c1c(O)c(C)nn(C)c1=O [3-006],5 (Herbicidal rate of 90% or more (almost completely withered)),
CCCC(=O)Oc1c(C)nn(C)c(=O)c1-c1c(-c2ccc(F)cc2OC)sc2cc(F)ccc12 [3-010],3 (Herbicidal rate of 40% or more and less than 70%),
CCOc1ccc2c(-c3c(O)c(C)nn(C)c3=O)c(-c3ccc(F)cc3OCC)sc2c1 [3-095],,4 (Herbicidal rate of 70% or more and less than 90%)

# System: redroot pigweed
# Test: Test Example 5: herbicidal effect by foliage application, plastic box (Table 20, symbol N)
# Type: in vivo, redroot pigweed (Amaranthus retroflexus)
# Conditions: foliage application, 320 g/ha, three weeks after application
# In short: as §2
row,Structure (SMILES),"N: redroot pigweed, herbicidal effect grade"
1,CCOc1ccccc1-c1sc2cc(F)ccc2c1-c1c(O)c(C)nn(C)c1=O [3-006],5 (Herbicidal rate of 90% or more (almost completely withered))
2,CCCC(=O)Oc1c(C)nn(C)c(=O)c1-c1c(-c2ccc(F)cc2OC)sc2cc(F)ccc12 [3-010],5 (Herbicidal rate of 90% or more (almost completely withered))
3,CCOc1ccc2c(-c3c(O)c(C)nn(C)c3=O)c(-c3ccc(F)cc3OCC)sc2c1 [3-095],5 (Herbicidal rate of 90% or more (almost completely withered))

# System: oval-leafed pondweed
# Test: Test Example 1: herbicidal activity, application before weed generation under submerged conditions (Table 16, symbol C)
# Type: in vivo, oval-leafed pondweed (Monochoria vaginalis)
# Conditions: amount of applied herbicide 320 g/ha
# In short: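 Submerged Wagner pots (alluvial soil, 4 cm water) sown with weed seeds and planted with 2.5-leaf rice seedlings; emulsifiable concentrate diluted in water applied to water surface on sowing day. Held in greenhouse at 25-30 °C; injury scored 0-5 by herbicidal rate after three weeks.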
row,Structure (SMILES),"Herbicidal effect, C: oval-leafed pondweed"
1,CCOc1ccccc1-c1sc2cc(F)ccc2c1-c1c(O)c(C)nn(C)c1=O [3-006],4 (Herbicidal rate of 70% or more and less than 90%)
2,CCCC(=O)Oc1c(C)nn(C)c(=O)c1-c1c(-c2ccc(F)cc2OC)sc2cc(F)ccc12 [3-010],3 (Herbicidal rate of 40% or more and less than 70%)
3,CCOc1ccc2c(-c3c(O)c(C)nn(C)c3=O)c(-c3ccc(F)cc3OCC)sc2c1 [3-095],5 (Herbicidal rate of 90% or more (almost completely withered))

# System: false cleavers
# Test: Test Example 4: herbicidal effect by soil treatment (Table 19, symbol Q)
# Type: in vivo, false cleavers (Galium spurium)
# Conditions: amount of applied herbicide 320 g/ha
# In short: as §1
Structure (SMILES),"herbicidal effect, Q: false cleavers","Q: false cleavers, herbicidal effect grade"
CCOc1ccccc1-c1sc2cc(F)ccc2c1-c1c(O)c(C)nn(C)c1=O [3-006],5 (Herbicidal rate of 90% or more (almost completely withered)),
CCCC(=O)Oc1c(C)nn(C)c(=O)c1-c1c(-c2ccc(F)cc2OC)sc2cc(F)ccc12 [3-010],5 (Herbicidal rate of 90% or more (almost completely withered)),
CCOc1ccc2c(-c3c(O)c(C)nn(C)c3=O)c(-c3ccc(F)cc3OCC)sc2c1 [3-095],,4 (Herbicidal rate of 70% or more and less than 90%)

# System: Chinese sprangletop
# Test: Test Example 3: herbicidal effect by foliage application, Wagner pot (Table 18, symbol D)
# Type: in vivo, chinese sprangletop (Leptochloa chinensis)
# Conditions: 320 g/ha
# In short: as §3
row,Structure (SMILES),herbicidal effect on Chinese sprangletop (D)
1,CCOc1ccc2c(-c3c(O)c(C)nn(C)c3=O)c(-c3ccc(F)cc3OCC)sc2c1 [3-095],5 (Herbicidal rate of 90% or more (almost completely withered))

# Same assay, conditions: amount of applied herbicide 320 g/ha
row,Structure (SMILES),herbicidal effect on D: Chinese sprangletop
1,CCOc1ccccc1-c1sc2cc(F)ccc2c1-c1c(O)c(C)nn(C)c1=O [3-006],4 (Herbicidal rate of 70% or more and less than 90%)
2,CCCC(=O)Oc1c(C)nn(C)c(=O)c1-c1c(-c2ccc(F)cc2OC)sc2cc(F)ccc12 [3-010],0 (Herbicidal rate of 5% or less (almost no effect))

# System: lambsquarters
# Test: Test Example 5: herbicidal effect by foliage application, plastic box (Table 20, symbol O)
# Type: in vivo, lambsquarters (Chenopodium album)
# Conditions: foliage application, 320 g/ha, three weeks after application
# In short: as §2
row,Structure (SMILES),"O: lambsquarters, herbicidal effect grade"
1,CCOc1ccccc1-c1sc2cc(F)ccc2c1-c1c(O)c(C)nn(C)c1=O [3-006],4 (Herbicidal rate of 70% or more and less than 90%)
2,CCCC(=O)Oc1c(C)nn(C)c(=O)c1-c1c(-c2ccc(F)cc2OC)sc2cc(F)ccc12 [3-010],5 (Herbicidal rate of 90% or more (almost completely withered))
3,CCOc1ccc2c(-c3c(O)c(C)nn(C)c3=O)c(-c3ccc(F)cc3OCC)sc2c1 [3-095],5 (Herbicidal rate of 90% or more (almost completely withered))

# System: barnyard grass
# Test: Test Example 3: herbicidal effect by foliage application, Wagner pot (Table 18, symbol H)
# Type: in vivo, barnyard grass (Echinochloa crus-galli)
# Conditions: 320 g/ha
# In short: as §3
row,Structure (SMILES),herbicidal effect on barnyard grass (H)
1,CCOc1ccc2c(-c3c(O)c(C)nn(C)c3=O)c(-c3ccc(F)cc3OCC)sc2c1 [3-095],5 (Herbicidal rate of 90% or more (almost completely withered))

# Same assay, conditions: amount of applied herbicide 320 g/ha
row,Structure (SMILES),herbicidal effect on H: barnyard grass
1,CCOc1ccccc1-c1sc2cc(F)ccc2c1-c1c(O)c(C)nn(C)c1=O [3-006],5 (Herbicidal rate of 90% or more (almost completely withered))
2,CCCC(=O)Oc1c(C)nn(C)c(=O)c1-c1c(-c2ccc(F)cc2OC)sc2cc(F)ccc12 [3-010],5 (Herbicidal rate of 90% or more (almost completely withered))

# System: late watergrass
# Test: Test Example 2: herbicidal activity, application during weed generation under submerged conditions (Table 17, symbol A)
# Type: in vivo, late watergrass (Echinochloa oryzicola)
# Conditions: AAH 320 g/ha; application during weed generation, submerged conditions
# In short: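 In this pot test, flooded alluvial soil (water depth 4 cm) holds all three species sown as a mixture. Once seedlings have one to two leaves, the compound's emulsion, thinned with water to the intended dose, is poured on the water; grading follows after three weeks on the earlier criteria.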
row,Structure (SMILES),"herbicidal effect rating, A: late watergrass"
1,CCOc1ccccc1-c1sc2cc(F)ccc2c1-c1c(O)c(C)nn(C)c1=O [3-006],3 (Herbicidal rate of 40% or more and less than 70%)
2,CCCC(=O)Oc1c(C)nn(C)c(=O)c1-c1c(-c2ccc(F)cc2OC)sc2cc(F)ccc12 [3-010],3 (Herbicidal rate of 40% or more and less than 70%)
3,CCOc1ccc2c(-c3c(O)c(C)nn(C)c3=O)c(-c3ccc(F)cc3OCC)sc2c1 [3-095],4 (Herbicidal rate of 70% or more and less than 90%)

# System: windgrass
# Test: Test Example 4: herbicidal effect by soil treatment (Table 19, symbol L)
# Type: in vivo, windgrass (Apera spica-venti)
# Conditions: amount of applied herbicide 320 g/ha
# In short: as §1
Structure (SMILES),"herbicidal effect, L: windgrass","L: windgrass, herbicidal effect grade"
CCOc1ccccc1-c1sc2cc(F)ccc2c1-c1c(O)c(C)nn(C)c1=O [3-006],5 (Herbicidal rate of 90% or more (almost completely withered)),
CCCC(=O)Oc1c(C)nn(C)c(=O)c1-c1c(-c2ccc(F)cc2OC)sc2cc(F)ccc12 [3-010],4 (Herbicidal rate of 70% or more and less than 90%),
CCOc1ccc2c(-c3c(O)c(C)nn(C)c3=O)c(-c3ccc(F)cc3OCC)sc2c1 [3-095],,4 (Herbicidal rate of 70% or more and less than 90%)
